# Results: patent US8735414B2 (priority 2009, dated 2014)
# System: bicistronic HCV replicon (replicon RNA, GenBank Accession No. AJ242654)
# Test: HCV Replicon Assay
# Type: cell-based
# Settings: Hepatitis C virus, 72 h, read-out: Replicon IC50
row,SMILES,IC50
1,"Cc1cc2c(cc1F)c(C#N)c(-c1ccc(S(=O)(=O)N[C@H](C)C(F)(F)F)cn1)n2C1CCCC1 [compound 409, 6-(3-cyano-1-cyclopentyl-5-fluoro-6-methyl-1H-indol-2-yl)-N-[(2R)-1,1,1-trifluoropropan-2-yl]pyridine-3-sulfonamide]",< 500 nM
2,"C[C@H](NS(=O)(=O)c1ccc(-c2c(C#N)c3c(F)cc(OC(F)F)cc3n2CC2CC2)nc1)C(F)(F)F [compound 773, 6-[3-cyano-1-(cyclopropylmethyl)-6-(difluoromethoxy)-4-fluoro-1H-indol-2-yl]-N-[(2S)-1,1,1-trifluoropropan-2-yl]pyridine-3-sulfonamide]",500 to 2000 nM
3,"CCc1cc2c(cc1F)c(C#N)c(-c1ccc(NS(=O)(=O)C(C)(C)C)nc1)n2[C@@H](C)C1CC1 [compound 1082, N-(5-{3-cyano-1-[(1S)-1-cyclopropylethyl]-6-ethyl-5-fluoro-1H-indol-2-yl}pyridin-2-yl)-2-methylpropane-2-sulfonamide]",< 500 nM
4,"C[C@H](NS(=O)(=O)c1ccc(-c2c(C#N)c3ccc(CC(F)F)cc3n2C2CCCC2)nc1)C1CC1 [compound 594, 6-[3-cyano-1-cyclopentyl-6-(2,2-difluoroethyl)-1H-indol-2-yl]-N-[(1S)-1-cyclopropylethyl]pyridine-3-sulfonamide]",< 500 nM
5,"Cc1cc2c(cc1F)c(C#N)c(-c1cc(C)c(S(=O)(=O)N[C@@H](C)C(F)(F)F)cn1)n2-c1ccccn1 [compound 854, 6-[3-cyano-5-fluoro-6-methyl-1-(pyridin-2-yl)-1H-indol-2-yl]-4-methyl-N-[(2S)-1,1,1-trifluoropropan-2-yl]pyridine-3-sulfonamide]",< 500 nM
6,"CCc1cc2c(cc1F)c(C#N)c(-c1ccc(S(=O)(=O)NC3(C(F)(F)F)CC3)cn1)n2-c1ncccn1 [compound 864, 6-[3-cyano-6-ethyl-5-fluoro-1-(pyrimidin-2-yl)-1H-indol-2-yl]-N-[1-(trifluoromethyl)cyclopropyl]pyridine-3-sulfonamide]",< 500 nM
7,"CCc1cc2c(cc1F)c(C(N)=O)c(-c1ccc(S(=O)(=O)N[C@@H](C)C(F)(F)F)cn1)n2-c1cccc(C(F)(F)F)c1 [compound 1026, 6-ethyl-5-fluoro-1-[3-(trifluoromethyl)phenyl]-2-(5-{[(2S)-1,1,1-trifluoropropan-2-yl]sulfamoyl}pyridin-2-yl)-1H-indole-3-carboxamide]",500 to 2000 nM
8,"[2H][C@@](C)(NS(=O)(=O)c1ccc(-c2c(C#N)c3cc(F)c(CC)cc3n2-c2ncccn2)nc1)C(F)(F)F [compound 956, 6-[3-cyano-6-ethyl-5-fluoro-1-(pyrimidin-2-yl)-1H-indol-2-yl]-N-[(2S)-1,1,1-trifluoro(2-deuterium)propan-2-yl]pyridine-3-sulfonamide]",< 500 nM
9,"Cc1cc2c(cc1F)c(C#N)c(-c1ccc(S(=O)(=O)NC3CC3)cn1)n2C1CCC1 [compound 652, 6-(3-cyano-1-cyclobutyl-5-fluoro-6-methyl-1H-indol-2-yl)-N-cyclopropylpyridine-3-sulfonamide]",< 500 nM
10,"CC(C)NS(=O)(=O)c1ccc(-c2c(C#N)c3ccc(OC(F)(F)F)cc3n2C2CCCC2)nc1 [compound 17, 6-[3-cyano-1-cyclopentyl-6-(trifluoromethoxy)-1H-indol-2-yl]-N-(propan-2-yl)pyridine-3-sulfonamide]",500 to 2000 nM
11,"CC(C)n1c(-c2ncc(S(=O)(=O)NC(CF)CF)cn2)c(C#N)c2ccc(Cl)cc21 [compound 257, 2-[6-chloro-3-cyano-1-(propan-2-yl)-1H-indol-2-yl]-N-(1,3-difluoropropan-2-yl)pyrimidine-5-sulfonamide]",500 to 2000 nM
12,"N#Cc1c(-c2ccc(S(=O)(=O)NC(CF)CF)cn2)n(C2CCCC2)c2cc(O)c(F)cc12 [compound 575, 6-(3-cyano-1-cyclopentyl-5-fluoro-6-hydroxy-1H-indol-2-yl)-N-(1,3-difluoropropan-2-yl)pyridine-3-sulfonamide]",< 500 nM
13,"COC(=O)c1c(-c2ccc(S(=O)(=O)N[C@@H](C)C(F)(F)F)cn2)n(C2CCC2)c2cc(C)c(F)cc12 [compound 771, methyl 1-cyclobutyl-5-fluoro-6-methyl-2-(5-{[(2S)-1,1,1-trifluoropropan-2-yl]sulfamoyl}pyridin-2-yl)-1H-indole-3-carboxylate]",< 500 nM
14,"CCc1cc2c(cc1F)c(C#N)c(-c1ccc(S(=O)(=O)N[C@@H](C)C(F)(F)F)cn1)n2-c1ccccn1 [compound 778, 6-[3-cyano-6-ethyl-5-fluoro-1-(pyridin-2-yl)-1H-indol-2-yl]-N-[(2S)-1,1,1-trifluoropropan-2-yl]pyridine-3-sulfonamide]",< 500 nM
15,"C[C@H](NS(=O)(=O)c1ccc(-c2c(C#N)c3ccc(OC(F)(F)F)cc3n2C2CCC2)nc1)C1CC1 [compound 152, 6-[3-cyano-1-cyclobutyl-6-(trifluoromethoxy)-1H-indol-2-yl]-N-[(1S)-1-cyclopropylethyl]pyridine-3-sulfonamide]",< 500 nM
16,"Cc1cc2c(cc1F)c(C#N)c(-c1ccc(S(=O)(=O)N[C@@H](C)C(F)(F)F)cn1)n2-c1ncccc1F [compound 814, 6-[3-cyano-5-fluoro-1-(3-fluoropyridin-2-yl)-6-methyl-1H-indol-2-yl]-N-[(2S)-1,1,1-trifluoropropan-2-yl]pyridine-3-sulfonamide]",< 500 nM
17,"C[C@H](NS(=O)(=O)c1ccc(-c2c(C#N)c3cc(F)c(OC(F)F)cc3n2C2CCC2)nc1)C(F)(F)F [compound 549, 6-[3-cyano-1-cyclobutyl-6-(difluoromethoxy)-5-fluoro-1H-indol-2-yl]-N-[(2S)-1,1,1-trifluoropropan-2-yl]pyridine-3-sulfonamide]",< 500 nM
18,"COC(=O)c1c(-c2ccc(S(=O)(=O)NC(C)(C)C)cn2)n(C2CCC2)c2cc(C)c(F)cc12 [compound 770, methyl 2-[5-(tert-butylsulfamoyl)pyridin-2-yl]-1-cyclobutyl-5-fluoro-6-methyl-1H-indole-3-carboxylate]",< 500 nM
19,"CCc1cc2c(cc1F)c(C(N)=O)c(-c1ccc(S(=O)(=O)N[C@@H](C)C(F)(F)F)cn1)n2-c1ccccn1 [compound 909, 6-ethyl-5-fluoro-1-(pyridin-2-yl)-2-(5-{[(2S)-1,1,1-trifluoropropan-2-yl]sulfamoyl}pyridin-2-yl)-1H-indole-3-carboxamide]",500 to 2000 nM
20,"Cc1cc2c(cc1F)c(C(=O)O)c(-c1ncc(S(=O)(=O)N[C@@H](C)C(F)(F)F)cn1)n2C1CCC1 [compound 775, 1-cyclobutyl-5-fluoro-6-methyl-2-(5-{[(2S)-1,1,1-trifluoropropan-2-yl]sulfamoyl}pyrimidin-2-yl)-1H-indole-3-carboxylic acid]",500 to 2000 nM
21,"C[C@@H](C1CC1)n1c(-c2ccc(NS(=O)(=O)C(C)(C)C)nc2)c(C(=O)O)c2cc(F)c(OC(F)F)cc21 [compound 1080, 2-{6-[(tert-butylsulfonyl)amino]pyridin-3-yl}-1-[(1S)-1-cyclopropylethyl]-6-(difluoromethoxy)-5-fluoro-1H-indole-3-carboxylic acid]",500 to 2000 nM
22,"Cc1ccc2c(c1)c(C#N)c(-c1ccc(S(=O)(=O)N[C@H](C)C(F)(F)F)cn1)n2C1CCCC1 [compound 486, 6-(3-cyano-1-cyclopentyl-5-methyl-1H-indol-2-yl)-N-[(2R)-1,1,1-trifluoropropan-2-yl]pyridine-3-sulfonamide]",< 500 nM
23,"CCc1cc2c(cc1F)c(C(N)=O)c(-c1ccc(S(=O)(=O)N[C@@H](C)C(F)(F)F)cn1)n2-c1cncc(Cl)c1 [compound 1044, 1-(5-chloropyridin-3-yl)-6-ethyl-5-fluoro-2-(5-{[(2S)-1,1,1-trifluoropropan-2-yl]sulfamoyl}pyridin-2-yl)-1H-indole-3-carboxamide]",< 500 nM
24,"C[C@H](NS(=O)(=O)c1ccc(-c2c(C#N)c3ccc(OC(F)(F)F)cc3n2C2CCCCC2)nc1)C(F)(F)F [compound 459, 6-[3-cyano-1-cyclohexyl-6-(trifluoromethoxy)-1H-indol-2-yl]-N-[(2S)-1,1,1-trifluoropropan-2-yl]pyridine-3-sulfonamide]",< 500 nM
25,"Cc1cc2c(cc1F)c(C(N)=O)c(-c1ncc(S(=O)(=O)N[C@@H](C)C(F)(F)F)cn1)n2C1CCCCC1 [compound 707, 1-cyclohexyl-5-fluoro-6-methyl-2-(5-{[(2S)-1,1,1-trifluoropropan-2-yl]sulfamoyl}pyrimidin-2-yl)-1H-indole-3-carboxamide]",< 500 nM
26,"CSc1cc2c(C#N)c(-c3ccc(S(=O)(=O)N[C@@H](C)C(F)(F)F)cn3)n(C3CCC3)c2cc1OC(F)F [compound 685, 6-[3-cyano-1-cyclobutyl-6-(difluoromethoxy)-5-(methylsulfanyl)-1H-indol-2-yl]-N-[(2S)-1,1,1-trifluoropropan-2-yl]pyridine-3-sulfonamide]",500 to 2000 nM
27,"CC(C)NS(=O)(=O)c1cnc(-c2c(C#N)c3ccc(CC(F)F)cc3n2CC2CC2)nc1 [compound 620, 2-[3-cyano-1-(cyclopropylmethyl)-6-(2,2-difluoroethyl)-1H-indol-2-yl]-N-(propan-2-yl)pyrimidine-5-sulfonamide]",< 500 nM
28,"C[C@H](NS(=O)(=O)c1ccc(-c2c(C#N)c3ccc(C4CC4)cc3n2-c2ncccn2)nc1)C(F)(F)F [compound 650, 6-[3-cyano-6-cyclopropyl-1-(pyrimidin-2-yl)-1H-indol-2-yl]-N-[(2S)-1,1,1-trifluoropropan-2-yl]pyridine-3-sulfonamide]",< 500 nM
29,"[2H]C(C)(C)NS(=O)(=O)c1ccc(-c2c(C#N)c3cc(F)c(C([2H])([2H])[2H])cc3n2CC2CC2)nc1 [compound 1119, 6-[3-cyano-1-(cyclopropylmethyl)-5-fluoro-6-(1,1,1-trideuterium)methyl-1H-indol-2-yl]-N-[(2-deuterium)propan-2-yl]pyridine-3-sulfonamide]",< 500 nM
30,"Cc1nc(NS(=O)(=O)C(C)(C)C)ccc1-c1c(C(=O)O)c2cc(F)c(OC(F)F)cc2n1[C@H](C)C1CC1 [compound 1094, 2-{6-[(tert-butylsulfonyl)amino]-2-methylpyridin-3-yl}-1-[(1R)-1-cyclopropylethyl]-6-(difluoromethoxy)-5-fluoro-1H-indole-3-carboxylic acid]",< 500 nM
